In data set [1] the test system is influenza virus. Description: Inhibition of influenza viral replication in mouse lung (plaque forming assay). Also noted: species or system mice. The settings on record: in vivo, iv, 2 mg/kg.
Data set [2] relates to serum IFN-alpha. Nature of the data set: Systemic Type 1 interferon response: serum IFN-alpha by ELISA. As to conditions: siRNA in lyophilized ND(5)-98-1 nanoparticles, 2 mg/kg IV twice. On the technique in general: ELISA stands for enzyme-linked immunosorbent assay.
Protocol: Mice were injected IV twice with lyophilized ND(5)-98-1 (ND98)-siRNA nanoparticles at 2 mg/kg siRNA prior to (a) infection with 12,000 PFU, or (b) blood collection by cardiac puncture. […] (b) Serum IFN-alpha concentration was determined by ELISA.
Data set [3] concerns the target T1, TLR7 (Homo sapiens, UniProt Q9NYK1).
T1 construct: host or cells: human PBMCs (endogenous receptor)
T1 sequence (Q9NYK1 27-1049): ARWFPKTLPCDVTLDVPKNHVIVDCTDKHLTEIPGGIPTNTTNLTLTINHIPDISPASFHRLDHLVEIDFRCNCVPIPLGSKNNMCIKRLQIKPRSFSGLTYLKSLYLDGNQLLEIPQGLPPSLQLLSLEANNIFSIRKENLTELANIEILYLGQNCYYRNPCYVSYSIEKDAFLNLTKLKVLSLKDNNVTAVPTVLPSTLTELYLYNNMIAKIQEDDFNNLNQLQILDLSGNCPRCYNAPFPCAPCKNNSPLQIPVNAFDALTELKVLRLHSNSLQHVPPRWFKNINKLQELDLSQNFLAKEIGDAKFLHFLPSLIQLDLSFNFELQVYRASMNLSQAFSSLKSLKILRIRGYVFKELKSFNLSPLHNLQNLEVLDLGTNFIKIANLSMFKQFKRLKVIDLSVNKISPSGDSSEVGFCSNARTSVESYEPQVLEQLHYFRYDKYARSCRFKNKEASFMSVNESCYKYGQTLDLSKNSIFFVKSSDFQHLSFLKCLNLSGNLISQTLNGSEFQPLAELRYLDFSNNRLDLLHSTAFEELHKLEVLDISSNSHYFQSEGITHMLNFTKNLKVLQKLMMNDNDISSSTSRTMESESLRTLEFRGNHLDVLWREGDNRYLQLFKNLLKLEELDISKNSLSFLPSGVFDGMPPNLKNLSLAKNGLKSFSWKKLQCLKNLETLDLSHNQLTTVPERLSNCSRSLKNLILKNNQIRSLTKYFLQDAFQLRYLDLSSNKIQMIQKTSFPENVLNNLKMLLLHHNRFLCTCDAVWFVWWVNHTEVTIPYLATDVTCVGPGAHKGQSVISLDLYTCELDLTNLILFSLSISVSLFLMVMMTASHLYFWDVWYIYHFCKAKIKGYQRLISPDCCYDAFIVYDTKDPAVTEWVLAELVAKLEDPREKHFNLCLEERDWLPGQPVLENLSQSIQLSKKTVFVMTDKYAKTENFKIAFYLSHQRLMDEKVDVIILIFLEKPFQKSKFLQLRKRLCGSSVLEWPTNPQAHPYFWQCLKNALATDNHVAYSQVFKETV
The settings on record: cited from earlier work.

Data set [4] deals with T2, TLR8 (Homo sapiens, UniProt Q9NR97).
T2 construct: a strong ligand for both TLR7 and TLR8 in vitro in human PBMCs tranfected with DOTAP; host or cells: human PBMCs (endogenous receptor)
T2 sequence (Q9NR97 27-1041): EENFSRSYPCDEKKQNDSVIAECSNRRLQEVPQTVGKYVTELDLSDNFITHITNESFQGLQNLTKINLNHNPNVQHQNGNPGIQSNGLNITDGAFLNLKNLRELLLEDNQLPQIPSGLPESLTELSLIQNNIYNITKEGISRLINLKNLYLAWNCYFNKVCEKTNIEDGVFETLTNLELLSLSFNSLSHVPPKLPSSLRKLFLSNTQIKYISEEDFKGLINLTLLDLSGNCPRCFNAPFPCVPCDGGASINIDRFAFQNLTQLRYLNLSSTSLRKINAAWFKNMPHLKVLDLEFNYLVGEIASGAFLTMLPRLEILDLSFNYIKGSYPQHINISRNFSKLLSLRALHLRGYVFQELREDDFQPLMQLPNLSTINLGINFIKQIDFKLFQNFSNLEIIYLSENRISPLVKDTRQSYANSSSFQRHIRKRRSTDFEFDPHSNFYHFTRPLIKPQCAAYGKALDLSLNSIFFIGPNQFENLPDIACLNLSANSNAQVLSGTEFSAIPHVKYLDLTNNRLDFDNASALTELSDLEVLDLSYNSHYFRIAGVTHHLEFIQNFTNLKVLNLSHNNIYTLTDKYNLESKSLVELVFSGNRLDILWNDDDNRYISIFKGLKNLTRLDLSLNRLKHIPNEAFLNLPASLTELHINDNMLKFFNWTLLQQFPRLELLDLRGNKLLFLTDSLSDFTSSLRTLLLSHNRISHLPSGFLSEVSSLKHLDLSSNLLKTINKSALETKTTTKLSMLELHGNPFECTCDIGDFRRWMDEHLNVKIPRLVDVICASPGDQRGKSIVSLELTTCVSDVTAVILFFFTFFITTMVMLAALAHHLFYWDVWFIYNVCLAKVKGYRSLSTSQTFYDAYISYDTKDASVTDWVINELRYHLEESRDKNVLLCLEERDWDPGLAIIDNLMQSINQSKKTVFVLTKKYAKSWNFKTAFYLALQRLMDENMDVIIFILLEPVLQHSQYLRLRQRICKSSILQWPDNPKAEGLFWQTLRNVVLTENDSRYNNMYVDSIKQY
The settings on record: cited from earlier work.

Data on 4 substances can be found in patent US20120009222A1, “MODULATION OF THE IMMUNE RESPONSE” (priority 2008, published 2012).

“5′-CUACACAAAUCAGCGAUUUUU-3′ [siBgal-728]”: the “viral titer versus nanoparticles formulated with siGFP-949” value in data set [1] is reported as “significant reductions”. Besides, the “serum IFN-alpha” value in data set [2] was “high levels”.
Take “5′-GCCACCGAGCCGAAGGCACC-3′ (all phosphorothioate, sugars by position and methylation of C not given here; lipidoid formulation) [R1263]”: the TLR7 agonist activity result in data set [3] was “low”. Further, the TLR8 agonist activity result in data set [4] is “low”.
As for 5′-GGAUCUUAUUUCUUCGGAGUU-3′ [siNP-1496], in data set [1], the “viral titer versus nanoparticles formulated with siGFP-949” value is recorded as “significant reductions”. Moreover, the “serum IFN-alpha” value in data set [2] is given as “high levels”.
As to “5′-UUGUUGUUGUUGUUGUUGUU-3′ (all phosphorothioate, sugars by position not given here; lipidoid formulation) [R1362]”, in data set [3], the TLR7 agonist activity result was “highly active”. Besides, in data set [4], the TLR8 agonist activity entry was “highly active”.
